From PubChem BioAssay (NCI) come the findings set out here.

Test systems include SNB-19 CNS; SK-MEL-2 melanoma; NCI-H226 lung; SNB-75 CNS; SK-MEL-28 melanoma; IGROV1 ovarian; SK-OV-3 ovarian; OVCAR-3 ovarian; M14 melanoma; DU-145 prostate.
Common to all, as to test: NCI tumour cell line growth inhibition, 48 h

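Five concentrations, 48 hours, 96-well plates. Here, GI50 denotes the concentration required for 50% inhibition of growth. TGI: total growth inhibition.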

As to `CC(C)C(C/C=C1\CC(CO)(COC(=O)c2ccccc2)OC1=O)C(C)C` (stereo not drawn), the TGI in the test with SNB-19 CNS was 31.8 µM; in the test with SK-MEL-2 melanoma, more than 100 µM; in the test with NCI-H226 lung, 39.8 µM; with SNB-75 CNS, 29.1 µM; in the test on SK-MEL-28 melanoma, 30.2 µM; with IGROV1 ovarian it was 37.2 µM. The results for the TGI in the test with SK-OV-3 ovarian, in the test on OVCAR-3 ovarian and with M14 melanoma were 87.9 µM, 37.7 µM and 32.8 µM, respectively.

On to `C=CC1ON(Cc2ccccc2)CCc2cc(OC)c(OC)cc21` (stereo not drawn), for which the TGI with SNB-19 CNS, in the test on NCI-H226 lung, with SNB-75 CNS, in the test with SK-MEL-28 melanoma, in the test on IGROV1 ovarian and with DU-145 prostate was more than 100 µM each time. In addition, the TGI with SK-OV-3 ovarian, in the test on OVCAR-3 ovarian and in the test on M14 melanoma was more than 100 µM in each case.

Regarding `NC(=O)N/N=C/C(/C=N/NC(N)=O)[N+](=O)[O-]`, the TGI in the test on SNB-19 CNS, with SK-MEL-2 melanoma, in the test on NCI-H226 lung, with SNB-75 CNS, with SK-MEL-28 melanoma and with IGROV1 ovarian was more than 100 µM throughout. Further, the TGI in the test with SK-OV-3 ovarian, with OVCAR-3 ovarian and with M14 melanoma was more than 100 µM in each case.

On to `CC(C)=CC(=O)O[C@H]1C(=O)O[C@@H]2C[C@H]3[C@H](C)C(=O)C(O[C@@H]4O[C@H](CO)[C@@H](O)[C@H](O)[C@H]4O)=C[C@]3(C)[C@H]3[C@@H](O)[C@H](O)[C@]4(C(=O)O)OC[C@]32[C@@H]14`, for which the GI50 with SNB-19 CNS was 31.3 µM; in the test on NCI-H226 lung, 28.4 µM; with SK-MEL-28 melanoma it was 37.3 µM; in the test on DU-145 prostate, more than 100 µM; in the test on SK-OV-3 ovarian, more than 100 µM; in the test on OVCAR-3 ovarian, 20.3 µM. Besides, the GI50 with M14 melanoma was 32.1 µM. For the same compound, the TGI was more than 100 µM in the test with SNB-19 CNS; 85 µM in the test with NCI-H226 lung; more than 100 µM in the test on SNB-75 CNS; more than 100 µM in the test with SK-MEL-28 melanoma; more than 100 µM in the test on IGROV1 ovarian; more than 100 µM in the test on DU-145 prostate. Also, the TGI with SK-OV-3 ovarian is more than 100 µM; in the test with OVCAR-3 ovarian, 52.1 µM; with M14 melanoma, more than 100 µM.

As to `NNc1nc2ccccc2c(=O)n1NC(=O)C(=O)Nc1cccc(C(F)(F)F)c1`, the TGI with SNB-19 CNS, with SK-MEL-2 melanoma, with NCI-H226 lung, in the test on SNB-75 CNS, with SK-MEL-28 melanoma and with IGROV1 ovarian was more than 100 µM each time. Also, the TGI in the test with SK-OV-3 ovarian, in the test with OVCAR-3 ovarian and in the test on M14 melanoma was more than 100 µM in each case.

For the compound `c1ccc(-c2sc(-c3cccs3)cc2Cc2cccs2)cc1`, the TGI in the test on SNB-19 CNS, with NCI-H226 lung, in the test on SNB-75 CNS, with SK-MEL-28 melanoma, in the test on IGROV1 ovarian and in the test with DU-145 prostate was more than 10 µM in each case. Moreover, the TGI in the test with SK-OV-3 ovarian and in the test on M14 melanoma was more than 10 µM in each case.

In the case of `CN(CN1C(=O)C2Cc3ccccc3CN2C1=O)c1ccccn1` (stereo not drawn), the TGI in the test with SNB-19 CNS, in the test on SK-MEL-2 melanoma, with NCI-H226 lung, with SK-MEL-28 melanoma, in the test with IGROV1 ovarian and in the test with OVCAR-3 ovarian was more than 100 µM each time. Also, the TGI in the test with M14 melanoma was more than 100 µM.

For the compound `CCOC(=O)Oc1cc2c(c(OC)c1OC)-c1ccc(SC)c(=O)cc1C(NC(=O)C(F)(F)F)CC2` (stereo not drawn), the TGI in the test on SNB-19 CNS is more than 100 µM; in the test on SK-MEL-2 melanoma it was 51.4 µM; in the test with NCI-H226 lung, 0.00301 µM; in the test on SNB-75 CNS, more than 100 µM; with SK-MEL-28 melanoma, more than 100 µM; in the test on IGROV1 ovarian it was 0.149 µM. Besides, the TGI with M14 melanoma worked out at 38.8 µM. Also, the GI50 with SK-MEL-2 melanoma is 3.03 nM.

As to `O=c1[nH]nc(-c2ccccc2)n1/N=C/c1ccncc1`, the TGI in the test on SNB-19 CNS, in the test on NCI-H226 lung, in the test with SNB-75 CNS, in the test on SK-MEL-28 melanoma, with IGROV1 ovarian and in the test on DU-145 prostate was more than 100 µM each time. Further, the TGI in the test on OVCAR-3 ovarian and in the test on M14 melanoma was more than 100 µM in each case.

As for `O=C1O/C(=C(\Br)c2cccc3ccccc23)c2ccccc21`, the TGI with SK-MEL-2 melanoma is more than 61 µM; in the test with NCI-H226 lung, more than 55.7 µM; in the test with SNB-75 CNS, more than 87.2 µM; in the test on SK-MEL-28 melanoma, more than 50.2 µM; with IGROV1 ovarian, more than 57.9 µM; in the test on SK-OV-3 ovarian it was more than 55.8 µM. Moreover, the TGI with OVCAR-3 ovarian is more than 57.2 µM; in the test on M14 melanoma, more than 62.8 µM.

`CCC1C(c2cccc(OC)c2O)c2cc3c(cc2OC1N1CCCC1)OCO3` (stereo not drawn): the TGI with SNB-19 CNS was 46.9 µM; in the test with SK-MEL-2 melanoma it was 43.5 µM; in the test on SNB-75 CNS, 92.4 µM; in the test on SK-MEL-28 melanoma, 43.4 µM; with IGROV1 ovarian it was 45.3 µM; with OVCAR-3 ovarian, 44.5 µM. Further, the TGI in the test with M14 melanoma was 23.9 µM.

For the compound `Cc1nc2c(n1C(C)(C)C)C(=O)c1ccccc1C2=O`, the TGI in the test on SNB-19 CNS, with SK-MEL-2 melanoma, in the test on NCI-H226 lung, in the test with SNB-75 CNS, in the test on SK-MEL-28 melanoma and in the test with IGROV1 ovarian was more than 100 µM in each case. Also, the TGI with SK-OV-3 ovarian, in the test with OVCAR-3 ovarian and in the test with M14 melanoma was more than 100 µM in each case.

With `COc1ccccc1-c1cc(=O)c2ccccc2[nH]1`, the TGI with SNB-19 CNS, in the test with NCI-H226 lung, with SNB-75 CNS, with SK-MEL-28 melanoma, in the test with IGROV1 ovarian and with SK-OV-3 ovarian was more than 100 µM each time. Moreover, the TGI with OVCAR-3 ovarian and with M14 melanoma was more than 100 µM in each case.

On to `O=c1/c(=C\c2ccccc2)sc2n1C(c1ccccc1)C1(O)CCCCC1N=2` (stereo not drawn), for which the TGI in the test with SNB-19 CNS, in the test with SK-MEL-2 melanoma, in the test on NCI-H226 lung, in the test on SNB-75 CNS, in the test on SK-MEL-28 melanoma and with IGROV1 ovarian was more than 100 µM throughout. Besides, the TGI in the test with OVCAR-3 ovarian and in the test on M14 melanoma was more than 100 µM each time.
